Test results reported in patent US11425924B2, “Composition and method for controlled-release of amino acids” (Glanbia Nutritionals, Ltd., priority 2018, dated 2022).
Converted amounts (≈) assume the structure as drawn.

Assays:
[1] = Zeta potential measurements; format: physicochemical; details: uncoated
Method: Zeta potential analysis was performed in on a NanoBrook ZetaPlus Zeta Plus instrument from Brookhaven Instruments.

[2] = except at very acidic pH; cited from earlier work

surface charge [1]: positive charge
Structure (SMILES): CC(C)C[C@H](N)C(=O)O [Leucine (L-Leucine), L-Leucine]
solubility in water [2]: 24.3 mg/mL (≈ 185 mM)
